Assay results taken from patent US20170190671A1, “BIS(ARYL)CATECHOL DERIVATIVES AS HERBICIDES” (E I DU PONT DE NEMOURS AND COMPANY, priority 2014, published 2017).

Tests used:
Assay in all cases: Test C preemergence
Assay type in all cases: in vivo
[1] = test system: ragweed (common ragweed, Ambrosia elatior); details: Ambrosia artemisiifolia, pre-emergence, 336 h, scale 0 to 100, read-out: Plant response rating, Ragweed
How it was run: (§1)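 After preemergence treatment of seeds in loam-sand soil or foliar treatment at the 1- to 4-leaf stage of plants in peat/vermiculite medium, pots were kept 13-15 days in the greenhouse. Each was then scored visually, 0 meaning no effect and 100 complete control.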

[2] = test system: velvetleaf (Abutilon theophrasti); details: Abutilon theophrasti, pre-emergence, scale 0 to 100, read-out: Plant response rating, Velvetleaf
How it was run: as §1

corn (Zea mays) = details: Zea mays, pre-emergence, 336 h, scale 0 to 100
How it was run: as §1

[3] = test system: waterhemp (common waterhemp, Amaranthus rudis); details: Amaranthus tuberculatus, pre-emergence, scale 0 to 100, read-out: Plant response rating, Waterhemp
How it was run: as §1

[4] = test system: galium (catchweed bedstraw, Galium aparine); details: Galium, pre-emergence, 336 h, scale 0 to 100, read-out: Plant response rating, Galium
How it was run: as §1

[5] = test system: giant foxtail (Setaria faberii); details: Setaria faberi, pre-emergence, 336 h, scale 0 to 100, read-out: Plant response rating, Foxtail, Giant
How it was run: as §1

soybean (Glycine max) = details: Glycine max, pre-emergence, scale 0 to 100, read-out: Plant response rating, Soybean
How it was run: as §1

[6] = test system: johnsongrass (Sorghum halepense); details: Sorghum halepense, pre-emergence, 336 h, scale 0 to 100, read-out: Plant response rating, Johnsongrass
How it was run: as §1

[7] = test system: large (Lg) crabgrass (Digitaria sanguinalis); details: Digitaria sanguinalis, pre-emergence, 336 h, scale 0 to 100, read-out: Plant response rating, Crabgrass, Large
How it was run: as §1

[8] = test system: winter wheat (Triticum aestivum); details: Triticum aestivum, pre-emergence, 336 h, scale 0 to 100, read-out: Plant response rating, Wheat
How it was run: as §1

[9] = test system: pigweed (Amaranthus retroflexus); details: Amaranthus retroflexus, pre-emergence, 336 h, scale 0 to 100, read-out: Plant response rating, Pigweed
How it was run: as §1

[10] = test system: Italian ryegrass (Lolium multiflorum); details: Lolium multiflorum, pre-emergence, 336 h, scale 0 to 100, read-out: Plant response rating, Ryegrass, Italian
How it was run: as §1

[11] = test system: barnyardgrass (Echinochloa crus-galli); details: Echinochloa crus-galli, pre-emergence, read-out: Plant response rating, Barnyardgrass
How it was run: as §1

[12] = test system: morningglory (Ipomoea coccinea); details: Ipomoea, pre-emergence, 336 h, scale 0 to 100, read-out: Plant response rating, Morningglory
How it was run: as §1

[13] = test system: lambsquarters (Chenopodium album); details: Chenopodium album, pre-emergence, 336 h, scale 0 to 100, read-out: Plant response rating, Lambsquarters
How it was run: as §1

Question: `N#Cc1cccc(Oc2ncc(C(F)(F)F)cn2)c1Oc1ncc(Cl)cn1` [Compound 39, 2-[(5-chloro-2-pyrimidinyl)oxy]-3-[[5-(trifluoromethyl)-2-pyrimidinyl]oxy]-benzonitrile] was tested. Which pest or weed control at 31 g/ha ([1]; 31 g ai/ha, preemergence) did it give?
Answer: 40%

Question: What about the pest or weed control at 62 g/ha ([1]; 62 g ai/ha, preemergence) of the same compound?
Answer: 65%

Question: What about the pest or weed control at 125 g/ha ([1]; 125 g ai/ha, preemergence) of the same compound?
Answer: 85%

Question: And the pest or weed control at 16 g/ha ([1]; Preemergence, 16 g ai/ha)?
Answer: 15%

Question: What about the pest or weed control at 31 g/ha ([2]; 31 g ai/ha, preemergence) of the same compound?
Answer: 75%

Question: And the pest or weed control at 62 g/ha ([2]; 62 g ai/ha, preemergence)?
Answer: 100%

Question: And the pest or weed control at 125 g/ha ([2]; 125 g ai/ha, preemergence)?
Answer: 100%

Question: And the pest or weed control at 16 g/ha ([2]; Preemergence, 16 g ai/ha)?
Answer: 40%

Question: And the Corn plant response rating (crop injury, 0 = no effect, 100 = complete kill) at 31 g/ha (corn (Zea mays); 31 g ai/ha, preemergence)?
Answer: 40%

Question: And the Corn plant response rating (crop injury, 0 = no effect, 100 = complete kill) at 62 g/ha (corn (Zea mays); 62 g ai/ha, preemergence)?
Answer: 45%

Question: What about the Corn plant response rating (crop injury, 0 = no effect, 100 = complete kill) at 125 g/ha (corn (Zea mays); 125 g ai/ha, preemergence) of the same compound?
Answer: 85%

Question: And the Corn plant response rating (crop injury, 0 = no effect, 100 = complete kill) at 16 g/ha (corn (Zea mays); Preemergence, 16 g ai/ha)?
Answer: 5%

Question: And the pest or weed control at 31 g/ha ([3]; 31 g ai/ha, preemergence)?
Answer: 100%

Question: What about the pest or weed control at 62 g/ha ([3]; 62 g ai/ha, preemergence) of the same compound?
Answer: 100%

Question: What about the pest or weed control at 125 g/ha ([3]; 125 g ai/ha, preemergence) of the same compound?
Answer: 100%

Question: And the pest or weed control at 16 g/ha ([3]; Preemergence, 16 g ai/ha)?
Answer: 100%

Question: And the pest or weed control at 31 g/ha ([4]; 31 g ai/ha, preemergence)?
Answer: 90%

Question: And the pest or weed control at 62 g/ha ([4]; 62 g ai/ha, preemergence)?
Answer: 85%

Question: What about the pest or weed control at 125 g/ha ([4]; 125 g ai/ha, preemergence) of the same compound?
Answer: 100%

Question: And the pest or weed control at 16 g/ha ([4]; Preemergence, 16 g ai/ha)?
Answer: 85%

Question: And the pest or weed control at 31 g/ha ([5]; 31 g ai/ha, preemergence)?
Answer: 95%

Question: What about the pest or weed control at 62 g/ha ([5]; 62 g ai/ha, preemergence) of the same compound?
Answer: 100%

Question: And the pest or weed control at 125 g/ha ([5]; 125 g ai/ha, preemergence)?
Answer: 100%

Question: What about the pest or weed control at 16 g/ha ([5]; Preemergence, 16 g ai/ha) of the same compound?
Answer: 55%

Question: What about the plant injury at 31 g/ha (soybean (Glycine max); 31 g ai/ha, preemergence) of the same compound?
Answer: 65%

Question: What about the plant injury at 62 g/ha (soybean (Glycine max); 62 g ai/ha, preemergence) of the same compound?
Answer: 85%

Question: And the plant injury at 125 g/ha (soybean (Glycine max); 125 g ai/ha, preemergence)?
Answer: 95%

Question: What about the plant injury at 16 g/ha (soybean (Glycine max); Preemergence, 16 g ai/ha) of the same compound?
Answer: 35%

Question: And the pest or weed control at 31 g/ha ([6]; 31 g ai/ha, preemergence)?
Answer: 65%

Question: What about the pest or weed control at 62 g/ha ([6]; 62 g ai/ha, preemergence) of the same compound?
Answer: 85%

Question: What about the pest or weed control at 125 g/ha ([6]; 125 g ai/ha, preemergence) of the same compound?
Answer: 100%

Question: What about the pest or weed control at 16 g/ha ([6]; Preemergence, 16 g ai/ha) of the same compound?
Answer: 25%

Question: And the pest or weed control at 31 g/ha ([7]; 31 g ai/ha, preemergence)?
Answer: 100%

Question: What about the pest or weed control at 62 g/ha ([7]; 62 g ai/ha, preemergence) of the same compound?
Answer: 100%

Question: What about the pest or weed control at 125 g/ha ([7]; 125 g ai/ha, preemergence) of the same compound?
Answer: 100%

Question: What about the pest or weed control at 16 g/ha ([7]; Preemergence, 16 g ai/ha) of the same compound?
Answer: 100%

Question: And the plant injury at 31 g/ha ([8]; 31 g ai/ha, preemergence)?
Answer: 0%

Question: What about the plant injury at 62 g/ha ([8]; 62 g ai/ha, preemergence) of the same compound?
Answer: 30%

Question: And the plant injury at 125 g/ha ([8]; 125 g ai/ha, preemergence)?
Answer: 60%

Question: And the plant injury at 16 g/ha ([8]; Preemergence, 16 g ai/ha)?
Answer: 0%

Question: What about the pest or weed control at 31 g/ha ([9]; 31 g ai/ha, preemergence) of the same compound?
Answer: 98%

Question: What about the pest or weed control at 62 g/ha ([9]; 62 g ai/ha, preemergence) of the same compound?
Answer: 100%

Question: What about the pest or weed control at 125 g/ha ([9]; 125 g ai/ha, preemergence) of the same compound?
Answer: 100%

Question: What about the pest or weed control at 16 g/ha ([9]; Preemergence, 16 g ai/ha) of the same compound?
Answer: 100%

Question: What about the pest or weed control at 31 g/ha ([10]; 31 g ai/ha, preemergence) of the same compound?
Answer: 20%

Question: And the pest or weed control at 62 g/ha ([10]; 62 g ai/ha, preemergence)?
Answer: 75%

Question: And the pest or weed control at 125 g/ha ([10]; 125 g ai/ha, preemergence)?
Answer: 90%

Question: What about the pest or weed control at 16 g/ha ([10]; Preemergence, 16 g ai/ha) of the same compound?
Answer: 0%

Question: And the pest or weed control at 31 g/ha ([11]; 31 g ai/ha, preemergence, scale 0 to 100)?
Answer: 95%

Question: And the pest or weed control at 62 g/ha ([11]; 62 g ai/ha, preemergence, scale 0 to 100)?
Answer: 95%

Question: And the pest or weed control at 125 g/ha ([11]; 125 g ai/ha, preemergence, scale 0 to 100)?
Answer: 100%

Question: And the pest or weed control at 16 g/ha ([11]; Preemergence, 16 g ai/ha, scale 0 to 100 (0 no effect, 100 complete control))?
Answer: 65%

Question: And the pest or weed control at 31 g/ha ([12]; 31 g ai/ha, preemergence)?
Answer: 80%

Question: What about the pest or weed control at 62 g/ha ([12]; 62 g ai/ha, preemergence) of the same compound?
Answer: 98%

Question: And the pest or weed control at 125 g/ha ([12]; 125 g ai/ha, preemergence)?
Answer: 100%

Question: What about the pest or weed control at 16 g/ha ([12]; Preemergence, 16 g ai/ha) of the same compound?
Answer: 45%

Question: What about the pest or weed control at 31 g/ha ([13]; 31 g ai/ha, preemergence) of the same compound?
Answer: 90%

Question: What about the pest or weed control at 62 g/ha ([13]; 62 g ai/ha, preemergence) of the same compound?
Answer: 98%

Question: What about the pest or weed control at 125 g/ha ([13]; 125 g ai/ha, preemergence) of the same compound?
Answer: 95%

Question: And the pest or weed control at 16 g/ha ([13]; Preemergence, 16 g ai/ha)?
Answer: 60%
